Legend:
Type in all cases: in vitro ADME
[1] = Metabolic stability in human liver microsomes (in vitro t1/2); details: human liver microsomes 0.5 mg/mL, 2 μM compound; for Human microsome % 60 min: % remaining at 60 min
Method: (§1) Metabolic Stability Assays The following are assays that may be used to evaluate the metabolic stability of compounds of Formula (I) in human, rat, or mouse microsomes. The assays follow a common procedure recited below. 1. […] Two separated experiments were performed as follows. a) With NADPH: 10 μL of 20 mg/mL liver microsomes and 40 μL of 10 mM NADPH were added to the incubations. […] The final concentration of microsomes was 0.5 mg/mL. 3. The reaction was started with the addition of 4 μL of 200 μM control compound or test compound solutions. Verapamil was used as positive control in this study. The final concentration of test compound or control compound was 2 μM. 4. Aliquots of 50 μL were taken from the reaction solution at 0, 15, 30, 45 and 60 min. […] Samples were centrifuged at 3,220 g for 40 minutes. A 90 μL aliquot of the supernatant was mixed with 90 μL of ultra-pure H2O and then used for LC-MS/MS analysis. 5. Data analysis. All calculations were carried out using Microsoft Excel. Peak areas were determined from extracted ion chromatograms. The slope value, k, was determined by linear regression of the natural logarithm of the remaining percentage of the parent drug vs. incubation time curve. The in vitro half-life (in vitro t1/2) was determined from the slope value: in vitro t1/2=−(0.693)/k.

[2] = Metabolic stability in mouse liver microsomes (in vitro t1/2); details: mouse liver microsomes 0.5 mg/mL, 2 μM compound, % remaining at 60 min
Method: as §1

[3] = Metabolic stability in rat liver microsomes (in vitro t1/2); details: rat liver microsomes 0.5 mg/mL, 2 μM compound; for Rat microsome % 60 min: % remaining at 60 min
Method: as §1

Row | SMILES | Human microsome % 60 min [1] | Mouse microsome % 60 min [2] | Rat microsome % 60 min [3] | Rat microsome t1/2, min ([3]; in vitro t1/2) | Human microsome t1/2, min ([1]; in vitro t1/2)
1 | CC(C)COc1cccc(-c2cc(COC(C)(C)C(=O)O)nn2Cc2ccccc2Cl)c1 [Example 27, 2-([1-[(2-Chlorophenyl)methyl]-5-(3-(2-methylpropoxy)phenyl)1H-pyrazol-3-yl]methoxy)-2-methylpropanoic acid] | 43% | 50% |  |  | 
2 | CC(C)Oc1cccc(-c2cc(COC(C)(C)C(=O)O)nn2Cc2ccccc2Cl)c1 [Example 35, 2-([1-[(2-Chlorophenyl)methyl]-5-(3-isopropoxyphenyl)1H-pyrazol-3-yl]methoxy)-2-methylpropanoic acid] | 67% | 31% |  |  | 
3 | COc1cccc(-c2cc(COC(C)(C)C(=O)O)nn2Cc2ccccc2OC)c1 [Example 36, 2-([5-(3-Methoxyphenyl)-1-[(2-methoxyphenyl)methyl]1H-pyrazol-3-yl]methoxy)-2-methylpropanoic acid] | 85% | 99% |  |  | 
4 | COc1cccc(-c2cc(COC(C)(C)C(=O)O)nn2Cc2ccccc2N(C)C)c1 [Example 38, 2-([1-[[2-(Dimethylamino)phenyl]methyl]-5-(3-methoxyphenyl)1H-pyrazol-3-yl]methoxy)-2-methylpropanoic acid] | 56% | 61% |  |  | 
5 | CC(C)(OCc1cc(-c2cccc(OC3CC3)c2)n(Cc2ccccc2Cl)n1)C(=O)O [Example 39, 2-([1-[(2-Chlorophenyl)methyl]-5-[3-(cyclopropoxy)phenyl]1H-pyrazol-3-yl]methoxy)-2-methylpropanoic acid] | 89% | 88% |  |  | 
6 | COc1cccc(-c2c(C)c(COC(C)(C)C(=O)O)nn2Cc2ccccc2Cl)c1 [Example 54, 2-({1-[(2-Chlorophenyl)methyl]-5-(3-methoxyphenyl)-4-methyl-1H-pyrazol-3-yl}methoxy)-2-methylpropionic acid] | 59% | 95% |  |  | 
7 | COc1ccc(-c2cc(COC(C)(C)C(=O)O)nn2Cc2ccccc2Cl)s1 [Example 64, 2-([1-[(2-Chlorophenyl)methyl]-5-(5-methoxythien-2-yl)-1H-pyrazol-3-yl]methoxy)-2-methylpropanoic acid] | 82% | 84% |  |  | 
8 | COc1csc(-c2cc(COC(C)(C)C(=O)O)nn2Cc2ccccc2Cl)c1 [Example 65, 2-([1-[(2-Chlorophenyl)methyl]-5-(4-methoxythien-2-yl)-1H-pyrazol-3-yl]methoxy)-2-methylpropanoic acid] | 78% | 92% |  |  | 
9 | COc1cc(-c2cc(COC(C)(C)C(=O)O)nn2Cc2ccccc2Cl)cs1 [Example 66, 2-([1-[(2-chlorophenyl)methyl]-5-(5-methoxythien-3-yl)-1H-pyrazol-3-yl]methoxy)-2-methylpropanoic acid] | 73% | 83% |  |  | 
10 | CCC(C)(OCc1cc(-c2cccc(OC)c2)n(Cc2ccccc2Cl)n1)C(=O)O (stereo not drawn) [Example 68, 2-([1-[(2-Chlorophenyl)methyl]-5-(3-methoxyphenyl)-1H-pyrazol-3-yl]methoxy)-2-methylbutanoic acid] | 95% | 91% |  |  | 
11 | CC[C@](C)(OCc1cc(-c2cccc(OC)c2)n(Cc2ccccc2Cl)n1)C(=O)O [Example 120, (2S)-2-([1-[(2-chlorophenyl)methyl]-5-(3-methoxyphenyl)-1H-pyrazol-3-yl]methoxy)-2-methylbutanoic Acid] | 81% |  | 44% |  | 
12 | CC[C@@](C)(OCc1cc(-c2cccc(OC)c2)n(Cc2ccccc2Cl)n1)C(=O)O [Example 121, (2R)-2-([1-[(2-chlorophenyl)methyl]-5-(3-methoxyphenyl)-1H-pyrazol-3-yl]methoxy)-2-methylbutanoic Acid] | 82% | 81% | 61% |  | 
13 | CC(C)COc1ncc(-c2cc(COC(C)(C)C(=O)O)nn2Cc2ccccc2Cl)s1 [Example 132, 2-([1-[(2-Chlorophenyl)methyl]-5-[2-(2-methylpropoxy)-1,3-thiazol-5-yl]-1H-pyrazol-3-yl]methoxy)-2-methylpropanoic acid] | 70% | 64% | 70% |  | 
14 | CC(C)Oc1ncc(-c2cc(COC(C)(C)C(=O)O)nn2Cc2ccccc2Cl)s1 [Example 133, 2-([1-[(2-Chlorophenyl)methyl]-5-[2-(propan-2-yloxy)-1,3-thiazol-5-yl]-1H-pyrazol-3-yl]methoxy)-2-methylpropanoic acid] | 97% | 90% | 91% |  | 
15 | CC(C)Cc1ncc(-c2cc(COC(C)(C)C(=O)O)nn2Cc2ccccc2Cl)o1 [Example 134, 2-([1-[(2-Chlorophenyl)methyl]-5-[2-(2-methylpropyl)-1,3-oxazol-5-yl]-1H-pyrazol-3-yl]methoxy)-2-methylpropanoic acid] | 80% | 72% | 85% |  | 
16 | COc1cccc(-c2cc(COC(C)(C)C(=O)O)nn2Cc2ccccc2OC(C)C)c1 [Example 140, 2-([5-(3-Methoxyphenyl)-1-[[2-(propan-2-yloxy)phenyl]methyl]-1H-pyrazol-3-yl]methoxy)-2-methylpropanoic acid] | 67% | 62% | 48% |  | 
17 | CC(C)(C)COc1cccc(-c2cc(COC(C)(C)C(=O)O)nn2-c2ccccc2N2CCC2)c1 [Example 155, 2-([1-[2-(Azetidin-1-yl)phenyl]-5-[3-(2,2-dimethylpropoxy)phenyl]-1H-pyrazol-3-yl]methoxy)-2-methylpropanoic acid] | 62% | 37% | 70% |  | 
18 | CCn1ncc2ccc(-c3cc(COC(C)(C)C(=O)O)nn3-c3ccccc3Cl)cc21 [Example 157, 2-([1-(2-chlorophenyl)-5-(1-ethyl-1H-indazol-6-yl)-1H-pyrazol-3-yl]methoxy)-2-methylpropanoic acid] | 78% |  | 97% |  | 
19 | Cn1ncc2cccc(-n3nc(COC(C)(C)C(=O)O)cc3-c3cccc(OC4CCC4)c3)c21 [Example 166, 2-([5-(3-Cyclobutoxyphenyl)-1-(1-methyl-1H-indazol-7-yl)-1H-pyrazol-3-yl]methoxy)-2-methylpropanoic acid] | 94% | 82% |  | ∞ | 
20 | Cn1ncc2cccc(-n3nc(COC(C)(C)C(=O)O)cc3-c3cccc(OCC4CCC4)c3)c21 [Example 168, 2-([5-[3-(cyclobutylmethoxy)phenyl]-1-(1-methyl-1H-indazol-7-yl)-1H-pyrazol-3-yl]methoxy)-2-methylpropanoic acid] | 78% | 81% | 81% |  | 
21 | CC(C)(C)COc1cccc(-c2cc(COC(C)(C)C(=O)O)nn2-c2ccccc2Cl)c1 [Example 177, 2-([1-(2-chlorophenyl)-5-[3-(2,2-dimethylpropoxy)phenyl]-1H-pyrazol-3-yl]methoxy)-2-methylpropanoic acid] | 75% | 87% | 90% |  | 
22 | CC(C)(OCc1cc(-c2cccc(OCC3CCC3)c2)n(-c2ccccc2Cl)n1)C(=O)O [Example 178, 2-([1-(2-Chlorophenyl)-5-[3-(Cyclobutylmethoxy)phenyl]-1H-pyrazol-3-yl]methoxy)-2-methylpropanoic acid] | 66% | 70% | 72% |  | 
23 | CC(C)(OCc1cc(-c2cccc(OC3CC3)c2)n(-c2ccc(F)cc2N2CCC2)n1)C(=O)O [Example 183, 2-([1-[2-(Azetidin-1-yl)-4-fluorophenyl]-5-(3-cyclopropoxyphenyl)-1H-pyrazol-3-yl]methoxy)-2-methylpropanoic acid] | 66% | 73% | 71% |  | 
24 | Cc1ccccc1-n1nc(COC(C)(C)C(=O)O)cc1-c1cccc(OC2CC2)c1 [Example 188, 2-([5-(3-Cyclopropoxyphenyl)-1-(2-methylphenyl)-1H-pyrazol-3-yl]-methoxy)-2-methylpropanoic acid] |  | 92% | 87% |  | ∞
25 | CCOc1ccccc1Cn1nc(COC(C)(C)C(=O)O)cc1-c1cc(Cl)cc(OC)c1 [Example 196, 2-([5-(3-Chloro-5-methoxyphenyl)-1-[(2-ethoxyphenyl)methyl]-1H-pyrazol-3-yl]methoxy)-2-methylpropanoic acid] | 62% | 33% | 32% |  | 

Reference: patent publication US11292767B2, “Heterocyclic inhibitors of MCT4” (Vettore, LLC, priority 2016, dated 2022)
